Test results: ChEMBL document CHEMBL1147454, “6-Arylamino-7-chloro-quinazoline-5,8-diones as novel cytotoxic and DNA topoisomerase inhibitory agents” (Bioorg Med Chem Lett, 2004)

How the values were obtained:
[1] = test system: A549; test: In vitro cytotoxicity against human A549 (lung cancer) cell line.; type: functional, cell-based
[2] = molecular target: T1, DNA topoisomerase II (Homo sapiens, UniProt P11388+Q02880); test: In vitro inhibition of human DNA topoisomerase II activity.; type: protein assay; settings: concentration not given here
[3] = test system: Col2; test: In vitro cytotoxicity against human Col2 (colon cancer) cell line.; type: functional, cell-based
[4] = molecular target: T2, DNA topoisomerase 1 (Homo sapiens) (UniProt P11387); test: In vitro inhibition of human DNA topoisomerase I activity.; parameters: concentration or dose not given beside the values; settings: concentration not given here
T2 sequence (whole entry): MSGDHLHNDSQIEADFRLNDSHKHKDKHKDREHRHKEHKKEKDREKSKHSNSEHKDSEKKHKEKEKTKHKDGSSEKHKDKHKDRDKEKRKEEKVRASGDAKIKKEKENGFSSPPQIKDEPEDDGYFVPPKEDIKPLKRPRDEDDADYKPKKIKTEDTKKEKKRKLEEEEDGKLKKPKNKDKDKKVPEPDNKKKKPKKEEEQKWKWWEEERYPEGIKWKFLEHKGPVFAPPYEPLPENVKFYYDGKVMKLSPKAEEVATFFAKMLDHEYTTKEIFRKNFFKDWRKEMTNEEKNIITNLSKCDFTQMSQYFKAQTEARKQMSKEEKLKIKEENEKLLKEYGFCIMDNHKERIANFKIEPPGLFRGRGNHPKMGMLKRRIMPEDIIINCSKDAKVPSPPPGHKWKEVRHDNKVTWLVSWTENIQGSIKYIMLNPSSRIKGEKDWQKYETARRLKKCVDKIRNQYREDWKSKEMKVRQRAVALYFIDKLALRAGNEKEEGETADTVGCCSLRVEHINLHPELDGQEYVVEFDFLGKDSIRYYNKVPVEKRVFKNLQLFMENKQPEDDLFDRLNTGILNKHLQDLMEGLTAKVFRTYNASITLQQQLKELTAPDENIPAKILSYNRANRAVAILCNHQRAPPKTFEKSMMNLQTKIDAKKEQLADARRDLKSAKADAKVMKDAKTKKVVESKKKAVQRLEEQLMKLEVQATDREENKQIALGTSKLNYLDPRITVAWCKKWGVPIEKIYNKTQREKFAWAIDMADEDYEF

[5] = test system: SNU-638; test: In vitro cytotoxicity against human SNU-638 (stomach cancer) cell line.; type: functional, cell-based
[6] = molecular target: T1, DNA topoisomerase II; test: Inhibitory activity against DNA topoisomerase II; type: protein assay
[7] = molecular target: T1, DNA topoisomerase II; test: Inhibitory activity against topo II-mediated decatenation of DNA; type: protein assay

Compound	inhibition [2] [%]	inhibition [4] [%]	IC50 [6] [nM]	IC50 [7] [nM]	IC50 [1] [nM]	IC50 [3] [nM]	IC50 [5] [nM]
CCOc1ccccc1/N=C1/C(=O)c2cncnc2C(O)=C1Cl	1	9	–	–	3280	730	690
O=C1C(Nc2ccc3c(c2)OCO3)=C(Cl)C(=O)c2ncncc21	2	27	–	–	1670	880	550
COc1ccc(/N=C2/C(=O)c3cncnc3C(O)=C2Cl)c(OC)c1	20	35	–	–	2020	1070	610
O=C1C(Nc2cccc(Cl)c2)=C(Cl)C(=O)c2ncncc21	2	12	–	–	4220	3550	810
Cc1cccc(NC2=C(Cl)C(=O)c3ncncc3C2=O)c1	2	96	–	–	5170	5670	970
Cc1ccc(NC2=C(Cl)C(=O)c3ncncc3C2=O)cc1C	20	100	–	–	4490	3730	990
Cc1ccc(NC2=C(Cl)C(=O)c3ncncc3C2=O)cc1	1	12	–	–	5810	870	730
COc1cccc2c1C(=O)c1c(O)c3c(c(O)c1C2=O)C[C@@](O)(C(=O)CO)C[C@@H]3O[C@H]1C[C@H](N)[C@H](O)[C@H](C)O1 [DOXORUBICIN]	–	–	–	–	300	520	690
O=C1C(Nc2cccc(Br)c2)=C(Cl)C(=O)c2ncncc21	2	9	–	–	3680	5070	1180
Cc1c2ccncc2c(C)c2c1[nH]c1ccccc12 [ELLIPTECINE]	–	–	–	–	1220	1220	2000
O=C1C(Nc2ccc(Br)cc2)=C(Cl)C(=O)c2ncncc21	94	58	–	15100	4310	3020	690

More lines, main results first:

inhibition [2] [%]	inhibition [4] [%]	IC50 [6] [nM]	IC50 [7] [nM]	Compound	IC50 [1] [nM]	IC50 [3] [nM]	IC50 [5] [nM]
100	100	40500	–	Cc1ccc(/N=C2/C(=O)c3cncnc3C(O)=C2Cl)c(Br)c1	4070	3040	890
6	29	–	–	Cc1ccccc1/N=C1/C(=O)c2cncnc2C(O)=C1Cl	3600	3770	900
99	89	–	17300	O=C1C(Nc2ccccc2Br)=C(Cl)C(=O)c2ncncc21	4470	3400	990
48	–	–	–	COc1cc([C@@H]2c3cc4c(cc3[C@@H](O[C@@H]3O[C@@H]5CO[C@@H](C)O[C@H]5[C@H](O)[C@H]3O)[C@H]3COC(=O)[C@H]23)OCO4)cc(OC)c1O	–	–	–
4	88	–	–	CCc1ccc(NC2=C(Cl)C(=O)c3ncncc3C2=O)cc1	3440	700	640
82	20	–	–	CCc1ccccc1/N=C1/C(=O)c2cncnc2C(O)=C1Cl	4650	4370	700
41	27	–	–	O=C1C(Nc2ccccc2)=C(Cl)C(=O)c2ncncc21	3540	1190	770
